Test results taken from patent publication US20170080049A1, “MEDICINE AGAINST GROWTH FAILURE INDUCED BY ADMINISTRATION OF STEROID” (DAIICHI SANKYO COMPANY, LIMITED, priority 2014, published 2017).
Positions of bridges follow the written chain, without caps; N, C: chain ends. Residues, ends and D or L forms follow the SMILES beside them. No end group written: not given here.

What was measured:
Type in all cases: in vivo
[1] = tested on: dexamethasone-induced rat growth failure model; test: Combined administration study of human-type CNP-53 or various CNP derivatives in dexamethasone-induced rat growth failure model (Example 3); conditions: for plasma cholesterol concentration and thymus weight vs single administration group of dexamethasone (in words): combined with dexamethasone, 28 days; for Plasma cholesterol concentration / thymus body weight ratio / thymus weight at dissection: dexamethasone 0.67 mg/mL pump alone or combined with 15 mg/mL pump of the CNP peptide, continuous s.c. 28 days, 5-week-old male Wistar rat, n=5
Description: Osmotic pumps (MINI-OSMOTIC PUMP Model 2004, available from DURECT CORPORATION, flow rate: 0.25 μL/hr, for 28 days) were charged with 0.67 mg/mL solution of dexamethasone (dexamethasone injection “KS”, available from Kyoritsuseiyaku Corporation) and one osmotic pump was embedded in the hypoderm of the back of each 5-week-old male Crlj:WI (Wistar) rat (5 animals/group, Groups 2 to 6, a total of 25 animals). At the same time, one osmotic pump (the same as above) charged with a 15 mg/mL solution of CNP derivative (A) in Group 3, human-type CNP-53 in Group 4, CNP derivative (B) in Group 5 and CNP derivative (C) in Group 6 was embedded in the hypoderm of the back simultaneously. No substance was administered to the normal control group (Group 1, 5 animals). Then the animals were fed for 28 days, and transitions of the body weight, the body length and the tail length were measured. On the final day, the blood was collected from the abdominal aorta and the animals were caused to die under isoflurane anesthesia, and plasma was separated from the collected blood and the cholesterol concentration was determined by using a “LabAssay (trademark) cholesterol” (available from Wako Pure Chemical Industries, Ltd.). After collecting the blood and causing the animals to die, the right femur and thymus were extracted, and the length of the right femur and the weight of the thymus were measured.

[2] = tested on: rat growth failure induced by dexamethasone; test: Action comparing study between CNP derivative (A) and human growth hormone on rat growth failure induced by dexamethasone (Example 6)
Description: Osmotic pumps (MINI-OSMOTIC PUMP Model 2004, available from DURECT CORPORATION, flow rate: 0.25 μL/hr, for 28 days) were charged with a 0.67 mg/mL solution of dexamethasone (dexamethasone injection “KS”, available from Kyoritsuseiyaku Corporation), and one osmotic pump was embedded in the hypoderm of the back of each 4-week-old male Crlj:WI (Wistar) rat (5 animals/group, Group 2 to Group 4, total of 15 animals). For Group 3, a 1 mg/mL solution of CNP derivative (A) (medium: 0.03 mol/L acetate buffer (pH 4.0)/1% benzyl alcohol/10% sucrose), and for Group 4, a 1 mg/mL solution of human-type growth hormone preparation (somatropin BS subcutaneous injection 10 mg “SANDOZ”) diluted with a phosphate buffer was administered to the hypoderm of the back of five rats, respectively, in a volume of 2 mL/kg once a day for 28 days. No substance was administered to the normal control group (5 animals, Group 1). On the final day, after measuring the body weight, the body length and the tail length, the blood was collected from the abdominal aorta and the animal was caused to die under isoflurane anesthesia, the left femur was extracted and the bone length was measured, and then a histopathological specimen of the epiphyseal region was prepared.

[3] = tested on: steroid-induced growth failure, male Crlj:WI (Wistar) rat; test: Simultaneous combined administration test of various steroids and CNP derivative (A) in rats (Example 5); conditions: for Body length at dissection / Body length, variation from preadministration value (Δ value) / Body weight, variation from preadministration value (Δ value) / Right femur length at dissection / Tail length at dissection / Tail length, variation from preadministration value (Δ value) / Body weight at dissection: 1 mL/kg s.c. once a day 28 days, + medium or + CNP derivative (A) 1 mg/kg, n=5; for Body weight at dissection: 4-week-old male Wistar rat
Description: 0.3 mg/mL solution of dexamethasone (dexamethasone injection “KS”, available from Kyoritsuseiyaku Corporation diluted with saline), prednisolone succinate suspended in 0.1% polysorbate-containing brine (available from Wako Pure Chemical Industries, Ltd., concentration of 5 mg/mL as prednisolone), or betamethasone dipropionate suspended in 0.1% polysorbate-containing brine (available from Wako Pure Chemical Industries, Ltd., concentration of 0.3 mg/mL as betamethasone) was administered to the hypoderm of the back of a 4-week-old male Crlj:WI (Wistar) rat (ten animals for each set of substances) in a volume of 1 mL/kg once a day for 28 days. No substance was administered to the control group (5 animals, Group 1). At the same time, for five of ten animals in each set (Group 2, Group 4, Group 6) a medium (0.03 mol/L acetate buffer (pH 4.0)/1% benzyl alcohol/10% sucrose) and for the remaining five animals (Group 3, Group 5, Group 7) the medium and a 1 mg/mL solution of CNP derivative (A) were administered in combination in the hypoderm of the back in a volume of 1 mL/kg once a day for 28 days. After measuring the body weight, the body length and the tail length under isoflurane anesthesia on the day after the final day of administration, blood was collected from the abdominal aorta and the animal was caused to die, the right femur was extracted and the femur length was measured.

[4] = combined with dexamethasone, 28 days
[5] = dexamethasone 0.67 mg/mL pump alone or with CNP derivative (A) or human-type growth hormone 1 mg/mL, 2 mL/kg s.c. once a day 28 days, n=4 or 5

CC[C@H](C)[C@@H]1NC(=O)[C@H](CCCNC(=N)N)NC(=O)[C@H](CC(=O)O)NC(=O)[C@H](CC(C)C)NC(=O)[C@H](CCCCN)NC(=O)[C@H](CC(C)C)NC(=O)CNC(=O)[C@H](Cc2ccccc2)NC(=O)[C@@H](NC(=O)CNC(=O)[C@H](CCCCN)NC(=O)[C@H](CO)NC(=O)[C@H](CC(C)C)NC(=O)CN)CSSC[C@@H](C(=O)N[C@H](C(=O)N[C@@H](CCC(N)=O)C(=O)N[C@@H](CCC(N)=O)C(=O)N[C@@H](CCCNC(=N)N)C(=O)N[C@@H](CCCCN)C(=O)N[C@@H](CCC(=O)O)C(=O)N[C@@H](CO)C(=O)N[C@@H](CCCCN)C(=O)N[C@@H](CCCCN)C(=O)N2CCC[C@H]2C(=O)N2CCC[C@H]2C(=O)N[C@@H](C)C(=O)N[C@@H](CCCCN)C(=O)N[C@@H](CC(C)C)C(=O)N[C@@H](CCC(N)=O)C(=O)N2CCC[C@H]2C(=O)N[C@@H](CCCNC(=N)N)C(=O)O)C(C)C)NC(=O)CNC(=O)[C@H](CC(C)C)NC(=O)CNC(=O)[C@H](CO)NC(=O)[C@H](CCSC)NC(=O)[C@H](CO)NC(=O)CNC1=O [CNP derivative (C), CNP (1-22) Ghrelin (12-28, SEQ ID NO: 8)] (H-GLSKGCFGLKLDRIGSMSGLGCVQQRKESKKPPAKLQPR-OH; disulfide 6-22)
plasma cholesterol concentration and thymus weight vs single administration group of dexamethasone (in words) [1]: a clear difference was not observed | Plasma cholesterol concentration [1]: 59.2 ± 7.4 ^NS mg/dL | thymus body weight ratio [1]: [0.11 ± 0.02% ^NS] | thymus weight at dissection [1]: 0.35 ± 0.06 g

DLRVDTKSRAAWARLLQEHPNARKYKGANKKGLSKGCFGLKLDRIGSMSGLGC (disulfide 37-53) [human-type CNP-53]
plasma cholesterol concentration and thymus weight vs single administration group of dexamethasone (in words) [1]: a clear difference was not observed | Plasma cholesterol concentration [1]: 62.1 ± 2.2 ^NS mg/dL | thymus body weight ratio [1]: [0.11 ± 0.01% ^NS] | thymus weight at dissection [1]: 0.33 ± 0.03 g

human-type growth hormone: human-type growth hormone preparation, existing therapeutic drug for dwarfism
elongation of the body length and the tail length vs dexamethasone-only administration group (in words) [2, 4]: no significant difference | left femur length on the final day vs dexamethasone-only administration group (in words) [2, 4]: No significant difference | Body weight at dissection ([2]; dexamethasone 0.67 mg/mL pump 28 days alone or with CNP derivative (A) or human-type growth hormone 1 mg/mL, 2 mL/kg s.c. once a day 28 days, 4-week-old male Wistar rat, mean ± SD, n=4 or 5): 255 ± 7 g | Body length at dissection [2, 5]: 199 ± 5 mm | Body length, variation from pre-administration value (Δ value) [2, 5]: (44.8 ± 3.7) mm | Body weight, variation from pre-administration value (Δ value) [2, 5]: (149 ± 3) g | Left femur length at dissection [2, 5]: 31.7 ± 0.6 mm | Tail length at dissection [2, 5]: 199 ± 3 mm | Tail length, variation from pre-administration value (Δ value) [2, 5]: (66.8 ± 5.0) mm | growth plate cartilage layer of the epiphyseal region of the left femur (in words) ([2]; histology, toluidine blue (FIG. 5), tendency, combinations compared with dexamethasone only): swelling

CC[C@H](C)[C@@H]1NC(=O)[C@H](CCCNC(=N)N)NC(=O)[C@H](CC(=O)O)NC(=O)[C@H](CC(C)C)NC(=O)[C@H](CCCCN)NC(=O)[C@H](CC(C)C)NC(=O)CNC(=O)[C@H](Cc2ccccc2)NC(=O)[C@@H](NC(=O)CNC(=O)[C@H](CCCCN)NC(=O)[C@H](CO)NC(=O)[C@H](CC(C)C)NC(=O)CNC(=O)[C@H](CCCCN)NC(=O)[C@H](CCCCN)NC(=O)[C@H](CC(N)=O)NC(=O)[C@H](C)NC(=O)CNC(=O)[C@H](CCCCN)NC(=O)[C@H](Cc2ccc(O)cc2)NC(=O)[C@H](CCCCN)NC(=O)[C@H](CCCNC(=N)N)NC(=O)[C@H](C)NC(=O)[C@H](CC(N)=O)NC(=O)[C@@H]2CCCN2C(=O)[C@H](Cc2c[nH]cn2)NC(=O)[C@H](CCC(=O)O)NC(=O)[C@H](CCC(N)=O)NC(=O)CNC(=O)[C@@H]2CCCN2)CSSC[C@@H](C(=O)O)NC(=O)CNC(=O)[C@H](CC(C)C)NC(=O)CNC(=O)[C@H](CO)NC(=O)[C@H](CCSC)NC(=O)[C@H](CO)NC(=O)CNC1=O [CNP derivative (B), Pro-Gly-CNP-37]
plasma cholesterol concentration and thymus weight vs single administration group of dexamethasone (in words) [1]: a clear difference was not observed | Plasma cholesterol concentration [1]: 64.4 ± 0.8 ^NS mg/dL | thymus body weight ratio [1]: [0.14 ± 0.04%*] | thymus weight at dissection [1]: 0.42 ± 0.14 g

CCC(=O)OCC(=O)[C@@]1(OC(=O)CC)[C@@H](C)C[C@H]2[C@@H]3CCC4=CC(=O)C=C[C@]4(C)[C@@]3(F)[C@@H](O)C[C@@]21C [Betamethasone, betamethasone dipropionate]
Body length at dissection ([3]; betamethasone 0.3 mg/mL): 211 ± 2 mm | Body length, variation from preadministration value (Δ value) ([3]; betamethasone 0.3 mg/mL): (59 ± 5) mm | Body weight, variation from preadministration value (Δ value) ([3]; betamethasone 0.3 mg/mL): (208 ± 10) g | Right femur length at dissection ([3]; betamethasone 0.3 mg/mL): 33.9 ± 0.5 mm | Tail length at dissection ([3]; betamethasone 0.3 mg/mL): 213 ± 4 mm | Tail length, variation from preadministration value (Δ value) ([3]; betamethasone 0.3 mg/mL): (82 ± 3) mm | Body weight at dissection ([3]; betamethasone dipropionate (0.3 mg/mL as betamethasone)): 315 ± 11 g | growth failure in rats by repeated administration of the steroid for 28 days (in words) ([3]; rat, in vivo, sc): induce growth failure

C[C@]12C=CC(=O)C=C1CC[C@@H]1[C@@H]2[C@@H](O)C[C@@]2(C)[C@H]1CC[C@]2(O)C(=O)COC(=O)CCC(=O)O [prednisolone succinate]
Body length at dissection ([3]; prednisolone 5 mg/mL): 209 ± 4 mm | Body length, variation from preadministration value (Δ value) ([3]; prednisolone 5 mg/mL): (58 ± 4) mm | Body weight, variation from preadministration value (Δ value) ([3]; prednisolone 5 mg/mL): (191 ± 14) g | Right femur length at dissection ([3]; prednisolone 5 mg/mL): 33.3 ± 0.3 mm | Tail length at dissection ([3]; prednisolone 5 mg/mL): 206 ± 6 mm | Tail length, variation from preadministration value (Δ value) ([3]; prednisolone 5 mg/mL): (79 ± 9) mm | Body weight at dissection ([3]; prednisolone succinate (5 mg/mL as prednisolone)): 298 ± 14 g | growth failure in rats by repeated administration of the steroid for 28 days (in words) ([3]; s.c. once a day 28 days, body weight gain, body, tail and femur length, p<0.05 or 0.01): induce growth failure
